Assay results published in patent US9938322B2, “β-hairpin peptidomimetics” (priority 2013, dated 2018).
*1 amine or outer side, *2 acyl side, *3 side chain or, on linkers, in order; H or OH if unused. Where a SMILES comes first, the peptide text is derived from it. Side-chain parts run from the residue outwards. [ ]: non-standard residue; d: D form. The star is where a group is joined. Cha = N[C@@H](CC1CCCCC1)C(=O)O; NH(3-picolyl) = c1cncc(CN*)c1; Tle = CC(C)(C)[C@H](N)C(=O)O; dDab = NCC[C@@H](N)C(=O)O; hSer = N[C@@H](CCO)C(=O)O; Orn = NCCC[C@H](N)C(=O)O; Dab = NCC[C@H](N)C(=O)O; Nva = CCC[C@H](N)C(=O)O; Dap = NC[C@H](N)C(=O)O; X4 = CCCCOc1ccc(N*)cc1; CO = O=C([*:1])[*:2]; NHiPr = CC(C)N*

Tested on: human red blood cells (hRBC)
Assay: Hemolysis of human red blood cells
Format: cell-based
Details: red cells of human, 1 h, 100
Experimental: Lyophilized peptides were weighed on a Microbalance (Mettler MT5) and dissolved in sterile water to a final concentration of 1 mg/ml. Stock solutions were kept at +4° C., light protected.
The peptides were tested for their hemolytic activity against human red blood cells (hRBC). Fresh hRBC were washed three times with phosphate buffered saline (PBS) and centrifuged for 10 min at 2000×g. Compounds (100 μg/ml) were incubated with 20% hRBC (v/v) for 1 h at 37° C. and shaking at 300 rpm. The final erythrocyte concentration was approximately 0.9×10^9 cells/ml. A value of 0% and 100% cell lyses, respectively, was determined by incubation of hRBC in the presence of PBS containing 0.001% acetic acid and 2.5% Triton X-100 in H2O, respectively. The samples were centrifuged, the supernatants were 8-fold diluted in PBS buffer and the optical densities (OD) were measured at 540 nm. The 100% lyses value (OD540H2O) gave an OD540 of approximately 0.5-1.0.
Percent hemolysis was calculated as follows: (OD540peptide/OD540H2O)×100%.

CCC[C@@H]1NC(=O)[C@H](CCN)NC(=O)[C@H](Cc2c[nH]c3ccccc23)NC(=O)[C@H](CCN)NC(=O)[C@@H](CCN)NC(=O)[C@H](CCCN)NC(=O)[C@H](CCN)NC(=O)[C@H](Cc2ccc(O)cc2)NC(=O)[C@H](CO)NC(=O)[C@H](CC(C)C)NC(=O)[C@@H]2CCCN2C(=O)[C@H]2CCCN2C(=O)[C@H](CO)NC(=O)[C@H](C)NC1=O [compound 30] (cyclo(LSY[Dab][Orn][dDab][Dab]W[Dab][Nva]AS[dP]P))
Hemolysis at 100 μg/ml: 1%

CC(C)C[C@@H]1NC(=O)[C@@H]2CCCN2C(=O)[C@H]2CCCN2C(=O)[C@H](CO)NC(=O)[C@H](C)NC(=O)[C@H](Cc2ccc(O)cc2)NC(=O)[C@H](CCN)NC(=O)[C@H](Cc2c[nH]c3ccccc23)NC(=O)[C@H](CCN)NC(=O)[C@@H](CCN)NC(=O)[C@H](CCCN)NC(=O)[C@H](CCN)NC(=O)[C@H](Cc2ccc(O)cc2)NC(=O)[C@H](CO)NC1=O [compound 31] (cyclo(LSY[Dab][Orn][dDab][Dab]W[Dab]YAS[dP]P))
Hemolysis at 100 μg/ml: 1%

COc1ccc(C[C@@H]2NC(=O)[C@H](CCN)NC(=O)[C@H](Cc3c[nH]c4ccccc34)NC(=O)[C@H](CCN)NC(=O)[C@@H](CCN)NC(=O)[C@H](CCCN)NC(=O)[C@H](CCN)NC(=O)[C@H](Cc3ccc(O)cc3)NC(=O)[C@H](CO)NC(=O)[C@H](CC(C)C)NC(=O)[C@@H]3CCCN3C(=O)[C@H]3CCCN3C(=O)[C@H](CO)NC(=O)[C@H](C)NC2=O)cc1 [compound 32] (cyclo(LSY[Dab][Orn][dDab][Dab]W[Dab]Y(Me)AS[dP]P))
Hemolysis at 100 μg/ml: 1%

CC(C)C[C@@H]1NC(=O)[C@@H]2CCCN2C(=O)[C@H]2CCCN2C(=O)[C@H](CO)NC(=O)[C@H](C)NC(=O)[C@H](C(C)(C)C)NC(=O)[C@H](CCN)NC(=O)[C@H](Cc2c[nH]c3ccccc23)NC(=O)[C@H](CCN)NC(=O)[C@@H](CCN)NC(=O)[C@H](CCCN)NC(=O)[C@H](CCN)NC(=O)[C@H](Cc2c[nH]c3ccccc23)NC(=O)[C@H](CO)NC1=O [compound 33] (cyclo(LSW[Dab][Orn][dDab][Dab]W[Dab][Tle]AS[dP]P))
Hemolysis at 100 μg/ml: 3.5%

CC(C)C[C@@H]1NC(=O)[C@@H]2CCCN2C(=O)[C@H]2CCCN2C(=O)[C@H](CO)NC(=O)[C@H](C)NC(=O)[C@H](Cc2c[nH]c3ccccc23)NC(=O)[C@H](CCN)NC(=O)[C@H](Cc2c[nH]c3ccccc23)NC(=O)[C@H](CCN)NC(=O)[C@@H](CCN)NC(=O)[C@H](CCCN)NC(=O)[C@H](CCN)NC(=O)[C@H](Cc2ccc(O)cc2)NC(=O)[C@H](CO)NC1=O [compound 34] (cyclo(LSY[Dab][Orn][dDab][Dab]W[Dab]WAS[dP]P))
Hemolysis at 100 μg/ml: 1%

CC(C)C[C@@H]1NC(=O)[C@@H]2CCCN2C(=O)[C@H]2CCCN2C(=O)[C@H](CO)NC(=O)[C@H](C)NC(=O)[C@H](C(C)C)NC(=O)[C@H](CCN)NC(=O)[C@H](Cc2c[nH]c3ccccc23)NC(=O)[C@H](CCN)NC(=O)[C@@H](CCN)NC(=O)[C@H](CCCN)NC(=O)[C@H](CCN)NC(=O)[C@H](Cc2ccc(O)cc2)NC(=O)[C@H](CO)NC1=O [compound 35] (cyclo(LSY[Dab][Orn][dDab][Dab]W[Dab]VAS[dP]P))
Hemolysis at 100 μg/ml: 1%

CC(C)C[C@@H]1NC(=O)[C@@H]2CCCN2C(=O)[C@H]2CCCN2C(=O)[C@H](CO)NC(=O)[C@H](C)NC(=O)[C@H](C(C)(C)C)NC(=O)[C@H](CCN)NC(=O)[C@H](Cc2c[nH]c3ccccc23)NC(=O)[C@H](CCN)NC(=O)[C@@H](CCN)NC(=O)[C@H](CCCN)NC(=O)[C@H](CCN)NC(=O)[C@H](Cc2ccc(O)cc2)NC(=O)[C@H](CO)NC1=O [compound 36] (cyclo(LSY[Dab][Orn][dDab][Dab]W[Dab][Tle]AS[dP]P))
Hemolysis at 100 μg/ml: 1%

CC(C)C[C@@H]1NC(=O)[C@@H]2CCCN2C(=O)[C@H]2CCCN2C(=O)[C@H](CO)NC(=O)[C@H](C)NC(=O)[C@H](C(C)(C)C)NC(=O)[C@H](CCO)NC(=O)[C@H](Cc2c[nH]c3ccccc23)NC(=O)[C@H](CCN)NC(=O)[C@@H](CCN)NC(=O)[C@H](CCCN)NC(=O)[C@H](CCN)NC(=O)[C@H](Cc2ccc(O)cc2)NC(=O)[C@H](CO)NC1=O [compound 37] (cyclo(LSY[Dab][Orn][dDab][Dab]W[hSer][Tle]AS[dP]P))
Hemolysis at 100 μg/ml: 1%

CC(C)C[C@@H]1NC(=O)[C@@H]2CCCN2C(=O)[C@H]2CCCN2C(=O)[C@H](CO)NC(=O)[C@H](C)NC(=O)[C@H](C(C)(C)C)NC(=O)[C@H](CCN)NC(=O)[C@H](Cc2c[nH]c3ccccc23)NC(=O)[C@H](CCN)NC(=O)[C@@H](CCN)NC(=O)[C@H](CCCN)NC(=O)[C@H](CCN)NC(=O)[C@H](CC2CCCCC2)NC(=O)[C@H](CNC(=O)NCc2cccnc2)NC1=O [compound 39] (cyclo(L[Dap]([CO-NH(3-picolyl)])[Cha][Dab][Orn][dDab][Dab]W[Dab][Tle]AS[dP]P))
Hemolysis at 100 μg/ml: 3%

CC(C)C[C@@H]1NC(=O)[C@@H]2CCCN2C(=O)[C@H]2CCCN2C(=O)[C@H](CO)NC(=O)[C@H](C)NC(=O)[C@H](C(C)(C)C)NC(=O)[C@H](CCN)NC(=O)[C@H](Cc2c[nH]c3ccccc23)NC(=O)[C@H](CCN)NC(=O)[C@@H](CCN)NC(=O)[C@H](CCCN)NC(=O)[C@H](CCN)NC(=O)[C@H](CC2CCCCC2)NC(=O)[C@H](CNC(=O)NC(C)C)NC1=O [compound 40] (cyclo(L[Dap]([CO-NHiPr])[Cha][Dab][Orn][dDab][Dab]W[Dab][Tle]AS[dP]P))
Hemolysis at 100 μg/ml: 1%

CCCCOc1ccc(NC(=O)NC[C@@H]2NC(=O)[C@H](CC(C)C)NC(=O)[C@@H]3CCCN3C(=O)[C@H]3CCCN3C(=O)[C@H](CO)NC(=O)[C@H](C)NC(=O)[C@H](C(C)(C)C)NC(=O)[C@H](CCN)NC(=O)[C@H](Cc3c[nH]c4ccccc34)NC(=O)[C@H](CCN)NC(=O)[C@@H](CCN)NC(=O)[C@H](CCCN)NC(=O)[C@H](CCN)NC(=O)[C@H](CC3CCCCC3)NC2=O)cc1 [compound 41] (cyclo(L[Dap]([CO-X4])[Cha][Dab][Orn][dDab][Dab]W[Dab][Tle]AS[dP]P))
Hemolysis at 100 μg/ml: 7%

CC(C)C[C@@H]1NC(=O)[C@@H]2CCCN2C(=O)[C@H]2CCCN2C(=O)[C@H](CN)NC(=O)[C@H](C)NC(=O)[C@H](C(C)(C)C)NC(=O)[C@H](CCO)NC(=O)[C@H](Cc2c[nH]c3ccccc23)NC(=O)[C@H](CCN)NC(=O)[C@@H](CCN)NC(=O)[C@H](CCCN)NC(=O)[C@H](CCN)NC(=O)[C@H](Cc2ccc(O)cc2)NC(=O)[C@H](CO)NC1=O [compound 42] (cyclo(LSY[Dab][Orn][dDab][Dab]W[hSer][Tle]A[Dap][dP]P))
Hemolysis at 100 μg/ml: 1%

CC(C)C[C@@H]1NC(=O)[C@@H]2CCCN2C(=O)[C@H]2CCCN2C(=O)[C@H](CO)NC(=O)[C@H](C)NC(=O)[C@H](C(C)(C)C)NC(=O)[C@H](CCN)NC(=O)[C@H](Cc2c[nH]c3ccccc23)NC(=O)[C@H](CCN)NC(=O)[C@@H](CCN)NC(=O)[C@H](CCCN)NC(=O)[C@H](CCN)NC(=O)[C@H](Cc2ccc(O)cc2)NC(=O)[C@H](C)NC1=O [compound 43] (cyclo(LAY[Dab][Orn][dDab][Dab]W[Dab][Tle]AS[dP]P))
Hemolysis at 100 μg/ml: 1%

CC[C@H](C)[C@@H]1NC(=O)[C@@H]2CCCN2C(=O)[C@H]2CCCN2C(=O)[C@H](CO)NC(=O)[C@H](C)NC(=O)[C@H](C(C)(C)C)NC(=O)[C@H](CCN)NC(=O)[C@H](Cc2c[nH]c3ccccc23)NC(=O)[C@H](CCN)NC(=O)[C@@H](CCN)NC(=O)[C@H](CCCN)NC(=O)[C@H](CCN)NC(=O)[C@H](Cc2ccc(O)cc2)NC(=O)[C@H](CO)NC1=O [compound 44] (cyclo(ISY[Dab][Orn][dDab][Dab]W[Dab][Tle]AS[dP]P))
Hemolysis at 100 μg/ml: 2%

CC(C)[C@@H]1NC(=O)[C@@H]2CCCN2C(=O)[C@H]2CCCN2C(=O)[C@H](CO)NC(=O)[C@H](C)NC(=O)[C@H](C(C)(C)C)NC(=O)[C@H](CCN)NC(=O)[C@H](Cc2c[nH]c3ccccc23)NC(=O)[C@H](CCN)NC(=O)[C@@H](CCN)NC(=O)[C@H](CCCN)NC(=O)[C@H](CCN)NC(=O)[C@H](Cc2ccc(O)cc2)NC(=O)[C@H](CO)NC1=O [compound 45] (cyclo(VSY[Dab][Orn][dDab][Dab]W[Dab][Tle]AS[dP]P))
Hemolysis at 100 μg/ml: 2%

CC(C)[C@@H]1NC(=O)[C@@H]2CCCN2C(=O)[C@H]2CCCN2C(=O)[C@H](CO)NC(=O)[C@H](C)NC(=O)[C@H](C(C)(C)C)NC(=O)[C@H](CCN)NC(=O)[C@H](Cc2c[nH]c3ccccc23)NC(=O)[C@H](CCN)NC(=O)[C@@H](CCN)NC(=O)[C@H](CCCN)NC(=O)[C@H](CCN)NC(=O)[C@H](Cc2ccc(O)cc2)NC(=O)[C@H](C)NC1=O [compound 46] (cyclo(VAY[Dab][Orn][dDab][Dab]W[Dab][Tle]AS[dP]P))
Hemolysis at 100 μg/ml: 1%

CCC[C@@H]1NC(=O)[C@@H]2CCCN2C(=O)[C@H]2CCCN2C(=O)[C@H](CO)NC(=O)[C@H](C)NC(=O)[C@H](C(C)(C)C)NC(=O)[C@H](CCN)NC(=O)[C@H](Cc2c[nH]c3ccccc23)NC(=O)[C@H](CCN)NC(=O)[C@@H](CCN)NC(=O)[C@H](CCCN)NC(=O)[C@H](CCN)NC(=O)[C@H](Cc2ccc(O)cc2)NC(=O)[C@H](CO)NC1=O [compound 47] (cyclo([Nva]SY[Dab][Orn][dDab][Dab]W[Dab][Tle]AS[dP]P))
Hemolysis at 100 μg/ml: 1%

CCC[C@@H]1NC(=O)[C@@H]2CCCN2C(=O)[C@H]2CCCN2C(=O)[C@H](CO)NC(=O)[C@H](C)NC(=O)[C@H](C(C)(C)C)NC(=O)[C@H](CCN)NC(=O)[C@H](Cc2c[nH]c3ccccc23)NC(=O)[C@H](CCN)NC(=O)[C@@H](CCN)NC(=O)[C@H](CCCN)NC(=O)[C@H](CCN)NC(=O)[C@H](Cc2ccc(O)cc2)NC(=O)[C@H](C)NC1=O [compound 48] (cyclo([Nva]AY[Dab][Orn][dDab][Dab]W[Dab][Tle]AS[dP]P))
Hemolysis at 100 μg/ml: 1%
